# According to paper PMC4128063, “Investigating G protein signalling bias at the glucagon-like peptide-1 receptor in yeast” (British Journal of Pharmacology, 2014):
# Read-outs that look alike come from different tables or passages of the source.
# Key:
# Type in all cases: cell-based
# [1] = biological target: GLP-1 receptor (GPA1/Gαi chimera) (Homo sapiens, UniProt P43220); test: Yeast growth assay, GPA1/Gαi chimera strain expressing the GLP-1 receptor
# [2] = biological target: GLP-1 receptor (GPA1/Gαs chimera) (Homo sapiens, UniProt P43220); test: Yeast growth assay, GPA1/Gαs chimera strain expressing the GLP-1 receptor
# GLP-1 receptor = GLP-1 receptor (Homo sapiens, UniProt P43220); test: G protein signalling bias, GPA1/Gαs versus GPA1/Gαi, yeast assays; settings: normalized responses at equivalent ligand concentrations
# Protocol: The strains used contain the HIS3 gene under the control of the pheromone-responsive FUS3 promoter. Receptor agonism induces expression of the reporter gene enabling growth in media lacking histidine (-HIS). […] Initially, cells were grown for 24 h in SD media lacking uracil (-URA) at 30°C to select for only those expressing the receptor. […] Finally, the cultures were diluted in SD-URA-HIS media, supplemented with FDGlu at a final concentration of 20 μM, to an OD600 of 0.02. […] Different concentrations of ligands (0.01 nM–100 mM) were added and yeast growth was measured using either a TECAN Infinite M200 microplate reader (TECAN Ultra Evolution, Reading, UK) or a Mithras LB940 microplate reader (Berthold Technologies, Harpenden, UK) for 20 h.
# Data were analysed using Prism 6.0c (Graphpad Software, San Diego, CA, USA). Concentration-response curves were fitted using the three-parameter logistic equation to obtain EC50 and Emax values. […] Statistical differences were analysed using one-way ANOVA with Bonferroni's or Dunnett's multiple comparisons or Student's test as appropriate and a probability (P) < 0.05 was considered significant.
# [3] = yeast, 20 h, percentage of the maximum response achieved through activation of GPA1/Gαs, mean ± SEM, n = 5, SEM
# [4] = yeast, 20 h, three-parameter logistic fit, mean ± SEM, n = 5, SEM
# Sequence of GLP-1 receptor (GPA1/Gαi chimera) (P43220 24-463, change not shown): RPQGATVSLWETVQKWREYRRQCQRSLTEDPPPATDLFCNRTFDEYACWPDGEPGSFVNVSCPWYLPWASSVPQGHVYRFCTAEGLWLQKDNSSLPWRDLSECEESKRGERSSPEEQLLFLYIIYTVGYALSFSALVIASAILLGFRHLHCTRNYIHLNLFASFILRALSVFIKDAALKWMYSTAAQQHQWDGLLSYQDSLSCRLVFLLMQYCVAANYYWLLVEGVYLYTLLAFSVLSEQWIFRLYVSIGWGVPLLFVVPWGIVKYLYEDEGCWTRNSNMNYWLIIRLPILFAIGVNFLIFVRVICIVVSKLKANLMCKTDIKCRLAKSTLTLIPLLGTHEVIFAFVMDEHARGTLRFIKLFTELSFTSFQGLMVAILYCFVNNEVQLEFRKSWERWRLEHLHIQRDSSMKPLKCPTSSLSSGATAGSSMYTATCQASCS
# Sequence of GLP-1 receptor (GPA1/Gαs chimera) (P43220 24-463, change not shown): as above
# Sequence of GLP-1 receptor (P43220 24-463): as the sequence (P43220 24-463, change not shown) above
compound,measurement,setting,value
"CC[S+]([O-])c1nc(-c2cccc(OCc3ccccc3)c2)cc(C(F)(F)F)n1 (centres unmarked) [BETP, 4-(3-benzyloxyphenyl)-2-ethylsulfinyl-6-(trifluoromethyl) pyrimidine]",EC50,"[1]; pEC50 (GLP-1 receptor, GPA1/Gαi), non-peptide agonists, yeast, 20 h, three-parameter logistic fit, mean ± SEM, n = 5, SEM",15.8 nM
same,Emax,"[1]; read-out: Emax (GLP-1 receptor, GPA1/Gαi), non-peptide agonists, yeast, 20 h, percentage of the maximum response achieved through activation of GPA1/Gαs, mean ± SEM, n = 5, SEM",96.5 ± 4.3%
same,EC50,"[1]; value quoted in running text, read-out: EC50 (yeast, GPA1/Gαi)",15 nM
same,EC50,"[2]; pEC50 (GLP-1 receptor, GPA1/Gαs), non-peptide agonists, yeast, 20 h, three-parameter logistic fit, mean ± SEM, n = 5, SEM",7.94 nM
same,Emax,"[2]; read-out: Emax (GLP-1 receptor, non-peptide agonists), yeast, 20 h, percentage of the maximum response achieved through activation of GPA1/Gαs, mean ± SEM, n = 5, SEM",100 ± 5.1%
same,EC50,"[2]; value quoted in running text, read-out: EC50 (yeast, GPA1/Gαs)",10 nM
same,"Equimolar bias plot, GPA1/Gαs versus GPA1/Gαi",GLP-1 receptor,did not deviate from the no-bias line of unity
"CC(C)(C)Nc1nc2cc(Cl)c(Cl)cc2nc1S(C)(=O)=O [Compound 2, 6,7-dichloro-2-methylsulfonyl-3-N-tert-butylaminoquinoxaline]","Emax (GLP-1 receptor, GPA1/Gαi), non-peptide agonists",[1]; [3],67.5 ± 7.3 %
same,"pEC50 (GLP-1 receptor, GPA1/Gαi), non-peptide agonists",[1]; [4],8.5 ± 0.3
same,"Emax (GLP-1 receptor, GPA1/Gαs), non-peptide agonists",[2]; [3],100 ± 7.3%
same,"pEC50 (GLP-1 receptor, GPA1/Gαs), non-peptide agonists",[2]; [4],8.6 ± 0.2
